Results from PubChem BioAssay AID256 (DTP/NCI, 2004).
Values joined by “and” are separate entries in the source; they are usually repeats but may differ in a detail not shown here. Identical values can stand only once. Inconclusive results and toxic doses are left out. Rule for the calls: active = survival T/C of 150% or more; inactive = T/C below 125% in these data.

Tested on: CD2F1 mice, L1210 leukemia ip, survival T/C
Test: NCI In Vivo Anticancer Drug Screen. Data for tumor model L1210 Leukemia (intraperitoneal) in CD2F1 (CDF1) mice
Conditions: higher = longer survival
Summary of the method: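 Tumor-bearing mice (transplanted tumor) were split into treated and vehicle control groups, and the measured endpoint of each treated group was divided by that of its vehicle controls.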

[1] = endpoint: mean survival time, dose: 100.0 mg/kg/injection, schedule: Q01DX001 (ip), vehicle: saline with Tween-80
[2] = endpoint: mean survival time, dose: 25.0 mg/kg/injection, schedule: Q01DX009 (ip), vehicle: saline
[3] = endpoint: mean survival time, dose: 50.0 mg/kg/injection, schedule: Q01DX009 (ip), vehicle: saline
[4] = endpoint: mean survival time, dose: 100.0 mg/kg/injection, schedule: Q01DX009 (ip), vehicle: saline
[5] = endpoint: mean survival time, dose: 100.0 mg/kg/injection, schedule: Q04DX003 (ip), vehicle: saline
[6] = endpoint: mean survival time, dose: 200.0 mg/kg/injection, schedule: Q04DX003 (ip), vehicle: saline
[7] = endpoint: mean survival time, dose: 12.5 mg/kg/injection, schedule: Q01DX005 (ip), vehicle: water
[8] = endpoint: mean survival time, dose: 50.0 mg/kg/injection, schedule: Q01DX005 (ip), vehicle: water
[9] = endpoint: mean survival time, dose: 100.0 mg/kg/injection, schedule: Q04DX003 (ip), vehicle: saline with Tween-80
[10] = endpoint: mean survival time, dose: 50.0 mg/kg/injection, schedule: Q04DX002 (ip), vehicle: saline with Tween-80
[11] = endpoint: mean survival time, dose: 100.0 mg/kg/injection, schedule: Q04DX002 (ip), vehicle: saline with Tween-80
[12] = endpoint: mean survival time, dose: 200.0 mg/kg/injection, schedule: Q04DX002 (ip), vehicle: saline with Tween-80
[13] = endpoint: mean survival time, dose: 100.0 mg/kg/injection, schedule: Q01DX001 (ip), vehicle: saline
[14] = endpoint: mean survival time, dose: 100.0 mg/kg/injection, schedule: Q01DX009 (ip), vehicle: saline with Tween-80
[15] = endpoint: mean survival time, dose: 200.0 mg/kg/injection, schedule: Q04DX003 (ip), vehicle: saline with Tween-80
[16] = endpoint: mean survival time, dose: 400.0 mg/kg/injection, schedule: Q04DX003 (ip), vehicle: saline with Tween-80
[17] = endpoint: mean survival time, dose: 12.5 mg/kg/injection, schedule: Q01DX009 (ip), vehicle: saline with Tween-80
[18] = endpoint: mean survival time, dose: 25.0 mg/kg/injection, schedule: Q01DX009 (ip), vehicle: saline with Tween-80

Measured: T/C

O=C1c2ccccc2-c2cc(Br)c(NC(Cl)Cl)cc21
inactive: [1] 104 % of control | endpoint: mean survival time, dose: 200.0 mg/kg/injection, schedule: Q01DX001 (ip), vehicle: saline with Tween-80 106 % of control | endpoint: mean survival time, dose: 400.0 mg/kg/injection, schedule: Q01DX001 (ip), vehicle: saline with Tween-80 103 % of control

CC[N+]1(C2CCC3CCC2C3O)CCOCC1 (configuration not stated)
inactive: [2] 91 % of control | endpoint: mean survival time, dose: 25.0 mg/kg/injection, schedule: Q04DX003 (ip), vehicle: saline 95 % of control | [3] 94 % of control | endpoint: mean survival time, dose: 50.0 mg/kg/injection, schedule: Q04DX003 (ip), vehicle: saline 97 % of control | [1] 100 % of control | [4] 92 % of control | [5] 100 % of control

CC(C)(C)OC(=O)NCCCCC(N)C(=O)OC(C)(C)C (configuration not stated)
inactive: [5] 96 % of control | [6] 93 % of control

COc1cc2cc(c1Cl)N(C)C(=O)CC(OC(=O)C(C)C)C1(C)OC1C(C)C1CC(O)(NC(=O)O1)C(OC)/C=C/C=C(C)C2 (configuration not stated)
inactive: endpoint: mean survival time, dose: 3.8 micrograms/kg/injection, schedule: Q01DX009 (ip), vehicle: saline + alcohol 100 % of control | endpoint: mean survival time, dose: 7.5 micrograms/kg/injection, schedule: Q01DX009 (ip), vehicle: saline + alcohol 97 % of control | endpoint: mean survival time, dose: 15.0 micrograms/kg/injection, schedule: Q01DX009 (ip), vehicle: saline + alcohol 114 % of control | endpoint: mean survival time, dose: 30.0 micrograms/kg/injection, schedule: Q01DX009 (ip), vehicle: saline + alcohol 111 % of control | endpoint: mean survival time, dose: 60.0 micrograms/kg/injection, schedule: Q01DX009 (ip), vehicle: saline + alcohol 111 % of control

NC(=O)c1ncn(C2OC(COP(=O)(O)O)C(O)C2O)n1 (configuration not stated)
inactive: [7] 98 % of control | endpoint: mean survival time, dose: 25.0 mg/kg/injection, schedule: Q01DX005 (ip), vehicle: water 101 % of control | [8] 102 % of control | endpoint: mean survival time, dose: 100.0 mg/kg/injection, schedule: Q01DX005 (ip), vehicle: water 98 % of control | endpoint: mean survival time, dose: 200.0 mg/kg/injection, schedule: Q01DX005 (ip), vehicle: water 102 % of control

c1ccc2[s+]cccc2c1
inactive: [9] 95 % of control

O=C(Sc1ccccc1)C(CO)c1ccccc1 (configuration not stated)
inactive: endpoint: mean survival time, dose: 25.0 mg/kg/injection, schedule: Q04DX002 (ip), vehicle: saline with Tween-80 101 % of control | [10] 101 % of control | [11] 97 % of control

NC(=O)c1cn(C2OC(CO)C(O)C2O)c2ncn3ncnc3c12 (configuration not stated)
inactive: endpoint: mean survival time, dose: 3.13 mg/kg/injection, schedule: Q01DX005 (ip), vehicle: water 113 % of control | endpoint: mean survival time, dose: 6.25 mg/kg/injection, schedule: Q01DX005 (ip), vehicle: water 112 % of control | [7] 116 % of control | [8] 98 % of control

OC1CC2c3ccccc3C1c1cccc[n+]12 (configuration not stated)
inactive: endpoint: mean survival time, dose: 100.0 mg/kg/injection, schedule: Q04DX003 (ip), vehicle: Klucel (hydroxypropylcellulose) (HPC) 94 % of control

O=C(Nc1ccccn1)OCc1ccccc1
inactive: [11] 112 % of control | [12] 101 % of control | endpoint: mean survival time, dose: 400.0 mg/kg/injection, schedule: Q04DX002 (ip), vehicle: saline with Tween-80 97 % of control

Cc1cccc[n+]1CC[n+]1ccccc1C
inactive: [13] 100 % of control | endpoint: mean survival time, dose: 200.0 mg/kg/injection, schedule: Q01DX001 (ip), vehicle: saline 101 % of control

N=c1ccn2c(n1)OC1C(OC(=O)C34CC5CC(CC(C5)C3)C4)C(COC(=O)C34CC5CC(CC(C5)C3)C4)OC12 (configuration not stated)
inactive: endpoint: mean survival time, dose: 12.5 mg/kg/injection, schedule: Q01DX005 (ip), vehicle: distilled water + Tween-80 104 % of control | endpoint: mean survival time, dose: 25.0 mg/kg/injection, schedule: Q01DX005 (ip), vehicle: distilled water + Tween-80 107 % of control | endpoint: mean survival time, dose: 50.0 mg/kg/injection, schedule: Q01DX005 (ip), vehicle: distilled water + Tween-80 121 % of control

COC(=O)c1cc(-c2ccccc2)nc2c1ccc1ccccc12
inactive: [13] 94 % of control

Cc1ccccc1N(CC1CO1)CC1CO1 (configuration not stated)
inactive: endpoint: mean survival time, dose: 12.5 mg/kg/injection, schedule: Q01DX009 (ip), vehicle: saline 115 % of control and 104 % of control | [2] 98 % of control and 106 % of control | [3] 100 % of control and 111 % of control | [4] 100 % of control and 106 % of control | endpoint: mean survival time, dose: 200.0 mg/kg/injection, schedule: Q01DX009 (ip), vehicle: saline 101 % of control and 108 % of control | endpoint: mean survival time, dose: 400.0 mg/kg/injection, schedule: Q01DX009 (ip), vehicle: saline 100 % of control and 106 % of control

c1ccc(C[Se]Cc2ccccc2)cc1
inactive: endpoint: mean survival time, dose: 6.25 mg/kg/injection, schedule: Q01DX009 (ip), vehicle: other 102 % of control | endpoint: mean survival time, dose: 12.5 mg/kg/injection, schedule: Q01DX009 (ip), vehicle: other 97 % of control | endpoint: mean survival time, dose: 25.0 mg/kg/injection, schedule: Q01DX009 (ip), vehicle: other 97 % of control | endpoint: mean survival time, dose: 25.0 mg/kg/injection, schedule: Q04DX003 (ip), vehicle: other 101 % of control | endpoint: mean survival time, dose: 50.0 mg/kg/injection, schedule: Q04DX003 (ip), vehicle: other 87 % of control

CC(=O)c1ccc2c3c(ccc([N+](=O)[O-])c13)CC2
inactive: [14] 94 % of control | [9] 100 % of control and 98 % of control | [15] 100 % of control and 98 % of control | [16] 98 % of control and 101 % of control

COc1cc(Cl)ccc1NC(=O)OCCOc1ccc(Br)cc1
inactive: [17] 91 % of control | [18] 87 % of control | endpoint: mean survival time, dose: 50.0 mg/kg/injection, schedule: Q01DX009 (ip), vehicle: saline with Tween-80 119 % of control and 91 % of control

C#C[C@]1(O)CC[C@H]2[C@@H]3CCc4cc(O)ccc4[C@H]3CC[C@@]21C
inactive: endpoint: median survival time, dose: 31.2 mg/kg/injection, schedule: Q01DX009 (ip), vehicle: saline with Tween-80 106 % of control | endpoint: median survival time, dose: 62.5 mg/kg/injection, schedule: Q01DX009 (ip), vehicle: saline with Tween-80 97 % of control | endpoint: median survival time, dose: 125.0 mg/kg/injection, schedule: Q01DX009 (ip), vehicle: saline with Tween-80 97 % of control | endpoint: median survival time, dose: 250.0 mg/kg/injection, schedule: Q01DX009 (ip), vehicle: saline with Tween-80 101 % of control | endpoint: median survival time, dose: 500.0 mg/kg/injection, schedule: Q01DX009 (ip), vehicle: saline with Tween-80 104 % of control

Cc1cccc(C(=O)OCCBr)c1
inactive: endpoint: mean survival time, dose: 75.0 mg/kg/injection, schedule: Q01DX009 (ip), vehicle: saline with Tween-80 102 % of control

CC1CCC2(CC1=O)C(C)CC(=O)C2C(C)C (configuration not stated)
inactive: [5] 95 % of control | [6] 98 % of control | endpoint: mean survival time, dose: 400.0 mg/kg/injection, schedule: Q04DX003 (ip), vehicle: saline 98 % of control

Nc1nc(NNC(=O)c2ccccc2)c2nonc2n1
inactive: endpoint: mean survival time, dose: 12.5 mg/kg/injection, schedule: Q01DX005 (ip), vehicle: other 95 % of control | endpoint: mean survival time, dose: 25.0 mg/kg/injection, schedule: Q01DX005 (ip), vehicle: other 95 % of control | endpoint: mean survival time, dose: 50.0 mg/kg/injection, schedule: Q01DX005 (ip), vehicle: other 91 % of control | endpoint: mean survival time, dose: 200.0 mg/kg/injection, schedule: Q01DX005 (ip), vehicle: other 91 % of control

O=C(Nc1ccc([N+](=O)[O-])cc1)OCc1ccccc1
inactive: [10] 104 % of control | [11] 100 % of control | [12] 108 % of control

CCCCCCCCCCCCCCCCCC(=O)NNCCO
inactive: [14] 89 % of control | [9] 94 % of control | endpoint: mean survival time, dose: 200.0 mg/kg/injection, schedule: Q01DX009 (ip), vehicle: saline with Tween-80 89 % of control | [15] 93 % of control | [16] 91 % of control

c1ccc2c(c1)nnn1c3cnccc3nc21
inactive: endpoint: mean survival time, dose: 1.56 mg/kg/injection, schedule: Q01DX009 (ip), vehicle: saline with Tween-80 101 % of control and 105 % of control | endpoint: mean survival time, dose: 3.12 mg/kg/injection, schedule: Q01DX009 (ip), vehicle: saline with Tween-80 94 % of control and 100 % of control | endpoint: mean survival time, dose: 5.0 mg/kg/injection, schedule: Q01DX001 (ip), vehicle: saline 98 % of control | endpoint: mean survival time, dose: 6.25 mg/kg/injection, schedule: Q01DX009 (ip), vehicle: saline with Tween-80 97 % of control and 103 % of control | endpoint: mean survival time, dose: 10.0 mg/kg/injection, schedule: Q01DX001 (ip), vehicle: saline 101 % of control | [17] 101 % of control | endpoint: mean survival time, dose: 20.0 mg/kg/injection, schedule: Q01DX001 (ip), vehicle: saline 98 % of control | [18] 103 % of control
